IC50 data for 26 compounds are collected here from patent US10144732B2 (BIOGEN MA INC., priority 2014, dated 2018).

In general, IC50 refers to the concentration needed to halve the response being measured.

Several values for one entry are separate records, joined by “and”; a condition that tells them apart may be missing. Equal entries are not always repeated. Structures can show the parent of a compound that is named as a salt. A value given as a limit tells only on which side of the number the result lay.

One experiment has as its target T1, Human ATX protein (Homo sapiens, UniProt Q13822).
T1 construct: made in house
The experiment in a line: ATX biochemical assay (FRET, FS-3 substrate). The note with it: FRET assay, FS-3 2 μM, ATX 1.0 μg/mL, 30 minutes preincubation, 2 hours reaction at room temperature; read-out: IC50. Put shortly: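 In-house human ATX (1.0 μg/mL final) was preincubated with compound for 30 min at room temperature in Tris buffer pH 7.4 with 1 mg/mL fatty acid free-BSA. FS-3 substrate (2 μM final) was then hydrolysed for 2 hours at room temperature, protected from light, and read as fluorescence at ex 485/em 538 nm.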
Regarding `CCOC(=O)C1CCN(C(C)C(=O)N2CCc3c(C(F)(F)F)nn(Cc4ccc(Cl)cc4F)c3C2)CC1` (centres unmarked) [Example 12-6, Ethyl 1-(1-(1-(4-chloro-2-fluorobenzyl)-3-(trifluoromethyl)-4,5-dihydro-1H-pyrazolo[3,4-c]pyridin-6(7H)-yl)-1-oxopropan-2-yl)piperidine-4-carboxylate], the IC50 is not above 100 nM.
Consider `O=C(C[C@H]1CC[C@H](C(=O)O)CC1)N1CCc2c(C(F)(F)F)nn(CCC3CCCCC3)c2C1` [Example 7-22, trans-4-(2-(1-(2-cyclohexylethyl)-3-(trifluoromethyl)-4,5-dihydro-1H-pyrazolo[3,4-c]pyridin-6(7H)-yl)-2-oxoethyl)cyclohexanecarboxylic acid], for which the IC50 is not above 100 nM.
`CN1CCC(CC(=O)N2CCc3c(C(F)(F)F)nn(Cc4ccc(Cl)cc4F)c3C2)CC1C(F)(F)F` (centres unmarked) [Example 10-4, 1-(1-(4-Chloro-2-fluorobenzyl)-3-(trifluoromethyl)-4,5-dihydro-1H-pyrazolo[3,4-c]pyridin-6(7H)-yl)-2-(1-methyl-2-(trifluoromethyl)piperidin-4-yl)ethanone TFA salt]: the IC50 is not above 100 nM.
Same read-out and setting: with `O=C(CC1CCC(N2CCC2)CC1)N1CCc2c(C(F)(F)F)nn(Cc3ccc(F)cc3)c2C1` (centres unmarked) [Example 22-6, 2-(4-(Azetidin-1-yl)cyclohexyl)-1-(1-(4-fluorobenzyl)-3-(trifluoromethyl)-4,5-dihydro-1H-pyrazolo[3,4-c]pyridin-6(7H)-yl)ethanone TFA salt] the figure was not above 100 nM; with `CN(C)C12CCC(C(=O)N3CCc4c(C(F)(F)F)nn(Cc5ccc(F)cc5)c4C3)(CC1)CC2` [Example 10-9, (4-(dimethylamino)bicyclo[2.2.2]octan-1-yl)(1-(4-fluorobenzyl)-3-(trifluoromethyl)-4,5-dihydro-1H-pyrazolo[3,4-c]pyridin-6(7H)-yl)methanone trifluoroacetate salt TFA salt], 250 to 500 nM; with `O=C(Cc1ccccc1)N1CCc2c(C(F)(F)F)nn(Cc3ccc(Cl)cc3F)c2C1` [Example 1-3, 1-(1-(4-Chloro-2-fluorobenzyl)-3-(trifluoromethyl)-4,5-dihydro-1H-pyrazolo[3,4-c]pyridin-6(7H)-yl)-2-phenylethanone], not above 100 nM.
Take `O=C(O)[C@H]1CC[C@H](C(=O)N2CCc3c(C(F)(F)F)nn(Cc4ccc(F)cc4)c3C2)CC1` [Example 7-17, trans-4-(1-(4-Fluorobenzyl)-3-(trifluoromethyl)-4,5,6,7-tetrahydro-1H-pyrazolo[3,4-c]pyridine-6-carbonyl)cyclohexanecarboxylic acid]: the IC50 is not above 100 nM.
Same read-out and setting: with `O=C(CN[C@H]1C[C@@H](C(=O)O)C1)N1CCc2c(C(F)(F)F)nn(Cc3ccc(F)cc3)c2C1` [Example 13-28, cis-3-(2-(1-(4-Fluorobenzyl)-3-(trifluoromethyl)-4,5-dihydro-1H-pyrazolo[3,4-c]pyridin-6(7H)-yl)-2-oxoethylamino)cyclobutanecarboxylic acid TFA salt] the figure was not above 100 nM; with `CCOC(=O)C1CCCN(CC(=O)N2CCc3c(C(F)(F)F)nn(Cc4ccc(Cl)cc4F)c3C2)C1` (centres unmarked) [Example 12-3, Ethyl 1-(2-(1-(4-chloro-2-fluorobenzyl)-3-(trifluoromethyl)-4,5-dihydro-1H-pyrazolo[3,4-c]pyridin-6(7H)-yl)-2-oxoethyl)piperidine-3-carboxylate], not above 100 nM.
Same read-out and setting: with `CCOC(=O)[C@H]1CC[C@H](CC(=O)N2CCc3c(C(F)(F)F)nn(Cc4ccc(F)cc4F)c3C2)CC1` [Example 1-50, trans-Ethyl 4-(2-(1-(2,4-difluorobenzyl)-3-(trifluoromethyl)-4,5-dihydro-1H-pyrazolo[3,4-c]pyridin-6(7H)-yl)-2-oxoethyl)cyclohexanecarboxylate] the figure was not above 100 nM; with `O=C(O)C1CCCN(CC(=O)N2CCc3c(C(F)(F)F)nn(Cc4ccc(F)cc4)c3C2)CC1` (centres unmarked) [Example 13-19, 1-(2-(1-(4-Fluorobenzyl)-3-(trifluoromethyl)-4,5-dihydro-1H-pyrazolo[3,4-c]pyridin-6(7H)-yl)-2-oxoethyl)azepane-4-carboxylic acid TFA salt], not above 100 nM.
For `O=C(CCc1nc2ccccc2s1)N1CCc2c(C(F)(F)F)nn(Cc3ccc(F)cc3)c2C1` [Example 1-14, 3-(Benzo[d]thiazol-2-yl)-1-(1-(4-fluorobenzyl)-3-(trifluoromethyl)-4,5-dihydro-1H-pyrazolo[3,4-c]pyridin-6(7H)-yl)propan-1-one], the IC50 is not above 100 nM.
On the same count and under the same terms, with `O=C(O)C1CC2CN(CC(=O)N3CCc4c(C(F)(F)F)nn(Cc5ccc(F)cc5)c4C3)CC2C1` (centres unmarked) [Example 13-10, 2-(2-(1-(4-Fluorobenzyl)-3-(trifluoromethyl)-4,5-dihydro-1H-pyrazolo[3,4-c]pyridin-6(7H)-yl)-2-oxoethyl)octahydrocyclopenta[c]pyrrole-5-carboxylic acid TFA salt] the figure was not above 100 nM; with `O=C(O)CC1CN(CC(=O)N2CCc3c(C(F)(F)F)nn(Cc4ccc(Cl)cc4F)c3C2)C1` [Example 13-22, 2-(1-(2-(1-(4-Chloro-2-fluorobenzyl)-3-(trifluoromethyl)-4,5-dihydro-1H-pyrazolo[3,4-c]pyridin-6(7H)-yl)-2-oxoethyl)azetidin-3-yl)acetic acid TFA salt], not above 100 nM.
Consider `CC(C(=O)N1CCc2c(C(F)(F)F)nn(Cc3ccc(Cl)cc3F)c2C1)N1CCC(C(=O)O)CC1` (centres unmarked) [Example 13-8, 1-(1-(1-(4-Chloro-2-fluorobenzyl)-3-(trifluoromethyl)-4,5-dihydro-1H-pyrazolo[3,4-c]pyridin-6(7H)-yl)-1-oxopropan-2-yl)piperidine-4-carboxylic acid], for which the IC50 is not above 100 nM.
The same measure, in the same setting: with `CCOC(=O)[C@H]1CC[C@@H](CC(=O)N2CCc3c(C(F)(F)F)nn(Cc4cc(F)cc(Cl)c4)c3C2)CC1` [Example 2-4, cis-ethyl 4-(2-(1-(3-chloro-5-fluorobenzyl)-3-(trifluoromethyl)-4,5-dihydro-1H-pyrazolo[3,4-c]pyridin-6(7H)-yl)-2-oxoethyl)cyclohexanecarboxylate] the figure was not above 100 nM; with `CC1CCC(CC(=O)N2CCc3c(C(F)(F)F)nn(Cc4ccc(Cl)cc4F)c3C2)CC1` (centres unmarked) [Example 1-21, 1-(1-(4-Chloro-2-fluorobenzyl)-3-(trifluoromethyl)-4,5-dihydro-1H-pyrazolo[3,4-c]pyridin-6(7H)-yl)-2-(4-methylcyclohexyl)ethanone], not above 100 nM.
Turning to `O=C(CC1CC(N2CCOCC2)C1)N1CCc2c(C(F)(F)F)nn(Cc3ccc(F)cc3)c2C1` (centres unmarked) [Example 22-5, 1-(1-(4-Fluorobenzyl)-3-(trifluoromethyl)-4,5-dihydro-1H-pyrazolo[3,4-c]pyridin-6(7H)-yl)-2-(3-morpholinocyclobutyl)ethanone TFA salt], the IC50 is not above 100 nM.
`CC(C)(C)OC(=O)N1CCCC(CC(=O)N2CCc3c(C(F)(F)F)nn(Cc4ccc(F)cc4)c3C2)C1` (centres unmarked) [Example 8-4, tert-Butyl 3-(2-(1-(4-fluorobenzyl)-3-(trifluoromethyl)-4,5-dihydro-1H-pyrazolo[3,4-c]pyridin-6(7H)-yl)-2-oxoethyl)piperidine-1-carboxylate]: the IC50 is not above 100 nM.
In the case of `O=C(C[C@H]1CC[C@H](C(=O)O)CC1)N1CCc2c(C(F)(F)F)nn(Cc3ccc(Cl)s3)c2C1` [Example 5-17, trans-4-(2-(1-((5-chlorothiophen-2-yl)methyl)-3-(trifluoromethyl)-4,5-dihydro-1H-pyrazolo[3,4-c]pyridin-6(7H)-yl)-2-oxoethyl)cyclohexanecarboxylic acid], the IC50 was not above 100 nM.
Still for that read-out and setting: with `O=C(O)C1CCC(CC(=O)N2CCc3c(C(F)(F)F)nn(-c4ccccc4)c3C2)CC1` (stereo in doubt) [Example 5-21, cis-4-(2-Oxo-2-(1-phenyl-3-(trifluoromethyl)-4,5-dihydro-1H-pyrazolo[3,4-c]pyridin-6(7H)-yl)ethyl)cyclohexanecarboxylic acid] the figure was > 500 nM and ≤ 10000 nM.
On the same count and under the same terms, with `CC(C)(C)OC(=O)NC12CCC(C(=O)N3CCc4c(C(F)(F)F)nn(Cc5ccc(F)cc5)c4C3)(CC1)CC2` [Example 8-10, tert-Butyl 4-(1-(4-fluorobenzyl)-3-(trifluoromethyl)-4,5,6,7-tetrahydro-1H-pyrazolo[3,4-c]pyridine-6-carbonyl)bicyclo[2.2.2]octan-1-ylcarbamate] the figure was not above 100 nM.
On the same count and under the same terms, with `O=C(C[C@H]1CC[C@H](C(=O)O)CC1)N1CCc2c(C(F)(F)F)nn(Cc3ccsc3)c2C1` [Example 5-27, trans-4-(2-Oxo-2-(1-(thiophen-3-ylmethyl)-3-(trifluoromethyl)-4,5-dihydro-1H-pyrazolo[3,4-c]pyridin-6(7H)-yl)ethyl)cyclohexanecarboxylic acid] the figure was not above 100 nM; with `O=C(O)C1CN(CC(=O)N2CCc3c(C(F)(F)F)nn(Cc4ccc(F)cc4)c3C2)C1` [Example 13-18, 1-(2-(1-(4-Fluorobenzyl)-3-(trifluoromethyl)-4,5-dihydro-1H-pyrazolo[3,4-c]pyridin-6(7H)-yl)-2-oxoethyl)azetidine-3-carboxylic acid TFA salt], not above 100 nM.
With `O=C(C[C@H]1CC[C@@H](C(=O)O)CC1)N1CCc2cnn(Cc3ccc(Cl)cc3F)c2C1` [Example 7-4, cis-4-(2-(1-(4-chloro-2-fluorobenzyl)-4,5-dihydro-1H-pyrazolo[3,4-c]pyridin-6(7H)-yl)-2-oxoethyl)cyclohexanecarboxylic acid], the IC50 is not above 100 nM.

The same experiment, now with this note: IC50, FRET assay, FS-3 2 μM, ATX 1.0 μg/mL, 30 minutes preincubation, 2 hours reaction at room temperature.
`O=C(O)C1CC2COCC(C1)N2CC(=O)N1CCc2c(C(F)(F)F)nn(Cc3ccc(Cl)cc3F)c2C1` (centres unmarked) [Example 13-27, 9-(2-(1-(4-Chloro-2-fluorobenzyl)-3-(trifluoromethyl)-4,5-dihydro-1H-pyrazolo[3,4-c]pyridin-6(7H)-yl)-2-oxoethyl)-3-oxa-9-azabicyclo[3.3.1]nonane-7-carboxylic acid TFA salt] returned an IC50 not above 100 nM.
